Source: patent US12723063B2, “GIPR-agonist compounds” (Eli Lilly and Company, priority 2019, dated 2026)
pKi: −log10 of the molar value. *1 amine or outer side, *2 acyl side, *3 side chain or, on linkers, in order; H or OH if unused. Where a SMILES comes first, the peptide text is derived from it. Side-chain parts run from the residue outwards. [ ]: non-standard residue; d: D form. The star is where a group is joined. C20 diacid = O=C(O)CCCCCCCCCCCCCCCCCCC(=O)*; γGlu = O=C(O)[C@H](CCC(=O)[*:2])N[*:1]; αMeY = C[C@](N)(Cc1ccc(O)cc1)C(=O)O; 4Pal = N[C@@H](Cc1ccncc1)C(=O)O; αMeL = CC(C)C[C@](C)(N)C(=O)O; Orn = NCCC[C@H](N)C(=O)O; AEEA = NCCOCCOCC(=O)O; Aib = CC(C)(N)C(=O)O

Target: T1, human GcgR (Homo sapiens, UniProt P47871)
T1 construct: expressed in transfected cells; crude membranes
T1 sequence (P47871 26-477): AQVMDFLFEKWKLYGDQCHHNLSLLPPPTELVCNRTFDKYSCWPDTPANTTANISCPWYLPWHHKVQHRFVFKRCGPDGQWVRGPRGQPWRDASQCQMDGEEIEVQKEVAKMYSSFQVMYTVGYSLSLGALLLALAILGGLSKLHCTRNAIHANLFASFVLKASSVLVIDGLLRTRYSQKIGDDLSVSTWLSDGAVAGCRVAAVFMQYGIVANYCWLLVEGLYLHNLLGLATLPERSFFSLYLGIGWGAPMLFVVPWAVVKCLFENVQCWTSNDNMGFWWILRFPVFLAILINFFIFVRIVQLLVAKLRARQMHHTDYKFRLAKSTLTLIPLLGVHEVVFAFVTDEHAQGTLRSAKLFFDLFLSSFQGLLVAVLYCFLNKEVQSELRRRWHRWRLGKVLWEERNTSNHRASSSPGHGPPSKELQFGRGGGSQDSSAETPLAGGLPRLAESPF
Experiment: [125I]-Glucagon binding, SPA with WGA beads, 0.1% bacitracin
Details: geometric mean, read-out: hGcgR Ki
In short: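 SPA competition binding with WGA beads on crude membranes from HEK293 cells stably expressing hGcgR. Buffer: 25 mM HEPES pH 7.4, 2.5 mM CaCl2, 1 mM MgCl2, 0.1% bacitracin, 0.003% Tween-20; 10-point 3-fold dilutions, NSB with 1 μM Gcg.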

With `CC[C@H](C)[C@H](NC(=O)[C@H](CC(C)C)NC(=O)[C@@H](NC(=O)CNC(=O)[C@H](CCC(=O)O)NC(=O)C(C)(C)NC(=O)[C@@H](N)Cc1ccc(O)cc1)[C@@H](C)O)C(=O)N[C@@H](CO)C(=O)N[C@@H](CC(=O)O)C(=O)N[C@@H](Cc1ccc(O)cc1)C(=O)N[C@@H](CO)C(=O)N[C@H](C(=O)N[C@@](C)(CC(C)C)C(=O)N[C@@H](CC(C)C)C(=O)N[C@@H](CC(=O)O)C(=O)N[C@@H](CCCCN)C(=O)N[C@@H](CCCCNC(=O)COCCOCCNC(=O)COCCOCCNC(=O)CC[C@H](NC(=O)CCCCCCCCCCCCCCCCCCC(=O)O)C(=O)O)C(=O)N[C@@H](Cc1c[nH]cn1)C(=O)N[C@@H](CCC(N)=O)C(=O)NC(C)(C)C(=O)N[C@@H](CC(=O)O)C(=O)N[C@@H](Cc1ccccc1)C(=O)N[C@H](C(=O)N[C@@H](CCC(=O)O)C(=O)N[C@@H](Cc1ccncc1)C(=O)N[C@@H](CC(C)C)C(=O)N[C@@H](CC(C)C)C(=O)N[C@@H](CCC(=O)O)C(=O)N[C@@H](C)C(=O)NCC(=O)N1CCC[C@H]1C(=O)N[C@@H](CO)C(=O)N[C@@H](CO)C(=O)NCC(=O)N[C@@H](C)C(=O)N1CCC[C@H]1C(=O)N1CCC[C@H]1C(=O)N1CCC[C@H]1C(=O)N[C@@H](CO)C(N)=O)C(C)C)[C@@H](C)CC` [Example 89] (H-Y[Aib]EGTLISDYSI[αMeL]LDKK([AEEA-AEEA-γGlu-C20 diacid])HQ[Aib]DFVE[4Pal]LLEAGPSSGAPPPS-NH2) the pKi was 6.21.

Work on `CC[C@H](C)[C@H](NC(=O)[C@H](CCCCN)NC(=O)[C@H](CC(=O)O)NC(=O)[C@H](CC(C)C)NC(=O)[C@](C)(CC(C)C)NC(=O)[C@@H](NC(=O)[C@H](CO)NC(=O)[C@H](Cc1ccc(O)cc1)NC(=O)[C@H](CC(=O)O)NC(=O)[C@H](CO)NC(=O)[C@@H](NC(=O)[C@H](Cc1ccccc1)NC(=O)[C@@H](NC(=O)CNC(=O)[C@H](CCC(=O)O)NC(=O)C(C)(C)NC(=O)[C@@H](N)Cc1ccc(O)cc1)[C@@H](C)O)[C@@H](C)CC)[C@@H](C)CC)C(=O)N[C@@H](Cc1c[nH]cn1)C(=O)N[C@@H](CCC(N)=O)C(=O)NC(C)(C)C(=O)N[C@@H](CC(=O)O)C(=O)N[C@@H](Cc1ccccc1)C(=O)N[C@H](C(=O)N[C@@H](CCC(=O)O)C(=O)N[C@@H](Cc1ccc(O)cc1)C(=O)N[C@@H](CCCCNC(=O)COCCOCCNC(=O)COCCOCCNC(=O)CC[C@H](NC(=O)CCCCCCCCCCCCCCCCCCC(=O)O)C(=O)O)C(=O)N[C@@H](CC(C)C)C(=O)N[C@@H](CCC(=O)O)C(=O)N[C@@H](C)C(=O)NCC(=O)N1CCC[C@H]1C(=O)N[C@@H](CO)C(=O)N[C@@H](CO)C(=O)NCC(=O)N[C@@H](C)C(=O)N1CCC[C@H]1C(=O)N1CCC[C@H]1C(=O)N1CCC[C@H]1C(=O)N[C@@H](CO)C(N)=O)C(C)C` [Example 117] (H-Y[Aib]EGTFISDYSI[αMeL]LDKIHQ[Aib]DFVEYK([AEEA-AEEA-γGlu-C20 diacid])LEAGPSSGAPPPS-NH2) yielded a pKi of 6.16.

`CC[C@H](C)[C@H](NC(=O)[C@H](CO)NC(=O)[C@H](Cc1ccc(O)cc1)NC(=O)[C@H](CC(=O)O)NC(=O)[C@H](CO)NC(=O)[C@@H](NC(=O)[C@H](Cc1ccccc1)NC(=O)[C@@H](NC(=O)CNC(=O)[C@H](CCC(=O)O)NC(=O)[C@@H](C)NC(=O)[C@@H](N)Cc1ccc(O)cc1)[C@@H](C)O)[C@@H](C)CC)C(=O)N[C@@H](CC(C)C)C(=O)N[C@@H](CC(C)C)C(=O)N[C@@H](CC(=O)O)C(=O)N[C@@H](CCCCN)C(=O)N[C@@H](CCCCNC(=O)COCCOCCNC(=O)COCCOCCNC(=O)CC[C@H](NC(=O)CCCCCCCCCCCCCCCCCCC(=O)O)C(=O)O)C(=O)N[C@@H](Cc1c[nH]cn1)C(=O)N[C@@H](CCC(N)=O)C(=O)NC(C)(C)C(=O)N[C@@H](CC(=O)O)C(=O)N[C@@H](Cc1ccccc1)C(=O)N[C@H](C(=O)N[C@@H](CC(N)=O)C(=O)N[C@@H](Cc1c[nH]c2ccccc12)C(=O)N[C@@H](CC(C)C)C(=O)N[C@@H](CC(C)C)C(=O)N[C@@H](C)C(=O)N[C@@H](CCC(N)=O)C(=O)NCC(=O)N1CCC[C@H]1C(=O)N[C@@H](CO)C(=O)N[C@@H](CO)C(=O)NCC(=O)N[C@@H](C)C(=O)N1CCC[C@H]1C(=O)N1CCC[C@H]1C(=O)N1CCC[C@H]1C(=O)N[C@@H](CO)C(N)=O)C(C)C` [Example 9] (H-Y[dA]EGTFISDYSILLDKK([AEEA-AEEA-γGlu-C20 diacid])HQ[Aib]DFVNWLLAQGPSSGAPPPS-NH2) showed a pKi of less than 6.64.

Work on `CC[C@H](C)[C@H](NC(=O)[C@H](CO)NC(=O)[C@H](Cc1ccc(O)cc1)NC(=O)[C@H](CC(=O)O)NC(=O)[C@H](CO)NC(=O)[C@@H](NC(=O)[C@H](Cc1ccccc1)NC(=O)[C@@H](NC(=O)CNC(=O)[C@H](CCC(=O)O)NC(=O)[C@@H](C)NC(=O)[C@@H](N)Cc1ccc(O)cc1)[C@@H](C)O)[C@@H](C)CC)C(=O)N[C@@H](CC(C)C)C(=O)N[C@@H](CC(C)C)C(=O)N[C@@H](CC(=O)O)C(=O)N[C@@H](CCCCN)C(=O)N[C@@H](CCCCNC(=O)COCCOCCNC(=O)COCCOCCNC(=O)CC[C@H](NC(=O)CCCCCCCCCCCCCCCCCCC(=O)O)C(=O)O)C(=O)N[C@@H](Cc1c[nH]cn1)C(=O)N[C@@H](CCC(N)=O)C(=O)N[C@@H](CCC(N)=O)C(=O)N[C@@H](CC(=O)O)C(=O)N[C@@H](Cc1ccccc1)C(=O)N[C@H](C(=O)N[C@@H](CC(N)=O)C(=O)N[C@@H](Cc1ccc(O)cc1)C(=O)N[C@@H](CC(C)C)C(=O)N[C@@H](CC(C)C)C(=O)N[C@@H](C)C(=O)N[C@@H](CCC(N)=O)C(=O)NCC(=O)N1CCC[C@H]1C(=O)N[C@@H](CO)C(=O)N[C@@H](CO)C(=O)NCC(=O)N[C@@H](C)C(=O)N1CCC[C@H]1C(=O)N1CCC[C@H]1C(=O)N1CCC[C@H]1C(=O)N[C@@H](CO)C(N)=O)C(C)C` [Example 15] (H-Y[dA]EGTFISDYSILLDKK([AEEA-AEEA-γGlu-C20 diacid])HQQDFVNYLLAQGPSSGAPPPS-NH2) yielded a pKi of less than 6.60.

`CC[C@H](C)[C@H](NC(=O)[C@H](CCCN)NC(=O)[C@H](CC(=O)O)NC(=O)[C@H](CC(C)C)NC(=O)[C@](C)(CC(C)C)NC(=O)[C@@H](NC(=O)[C@H](CO)NC(=O)[C@H](Cc1ccc(O)cc1)NC(=O)[C@H](CC(=O)O)NC(=O)[C@H](CO)NC(=O)[C@@H](NC(=O)[C@H](Cc1ccccc1)NC(=O)[C@@H](NC(=O)CNC(=O)[C@H](CCC(=O)O)NC(=O)C(C)(C)NC(=O)[C@@H](N)Cc1ccc(O)cc1)[C@@H](C)O)[C@@H](C)CC)[C@@H](C)CC)C(=O)N[C@@H](Cc1c[nH]cn1)C(=O)N[C@@H](CCC(N)=O)C(=O)NC(C)(C)C(=O)N[C@@H](CCC(=O)O)C(=O)N[C@@H](Cc1ccccc1)C(=O)N[C@H](C(=O)N[C@H](CCC(=O)O)C(=O)N[C@@H](Cc1ccc(O)cc1)C(=O)N[C@@H](CCCCNC(=O)COCCOCCNC(=O)COCCOCCNC(=O)CC[C@H](NC(=O)CCCCCCCCCCCCCCCCCCC(=O)O)C(=O)O)C(=O)N[C@@H](CC(C)C)C(=O)N[C@@H](CCC(=O)O)C(=O)NCC(=O)NCC(=O)N1CCC[C@H]1C(=O)N[C@@H](CO)C(=O)N[C@@H](CO)C(=O)NCC(=O)N[C@@H](C)C(=O)N1CCC[C@H]1C(=O)N1CCC[C@H]1C(=O)N1CCC[C@H]1C(=O)N[C@@H](CO)C(N)=O)C(C)C` [Example 102] (H-Y[Aib]EGTFISDYSI[αMeL]LD[Orn]IHQ[Aib]EFV[dE]YK([AEEA-AEEA-γGlu-C20 diacid])LEGGPSSGAPPPS-NH2) showed a pKi of less than 6.02.

`CC[C@H](C)[C@H](NC(=O)[C@H](Cc1ccccc1)NC(=O)[C@@H](NC(=O)CNC(=O)[C@H](CCC(=O)O)NC(=O)C(C)(C)NC(=O)[C@@H](N)Cc1ccc(O)cc1)[C@@H](C)O)C(=O)N[C@@H](CO)C(=O)N[C@@H](CC(=O)O)C(=O)N[C@@H](Cc1ccc(O)cc1)C(=O)N[C@@H](CO)C(=O)N[C@H](C(=O)N[C@@](C)(CC(C)C)C(=O)N[C@@H](CC(C)C)C(=O)N[C@@H](CC(=O)O)C(=O)N[C@@H](CCCCN)C(=O)N[C@@H](CCCCNC(=O)COCCOCCNC(=O)COCCOCCNC(=O)CC[C@H](NC(=O)CCCCCCCCCCCCCCCCCCC(=O)O)C(=O)O)C(=O)N[C@@H](Cc1c[nH]cn1)C(=O)N[C@@H](CCC(N)=O)C(=O)NC(C)(C)C(=O)N[C@@H](CC(=O)O)C(=O)N[C@@H](Cc1ccccc1)C(=O)N[C@H](C(=O)N[C@@H](CCC(=O)O)C(=O)N[C@@](C)(Cc1ccc(O)cc1)C(=O)N[C@@H](CC(C)C)C(=O)N[C@@H](CC(C)C)C(=O)N[C@@H](CCC(=O)O)C(=O)N[C@@H](C)C(=O)NCC(=O)N1CCC[C@H]1C(=O)N[C@@H](CO)C(=O)N[C@@H](CO)C(=O)NCC(=O)N[C@@H](C)C(=O)N1CCC[C@H]1C(=O)N1CCC[C@H]1C(=O)N1CCC[C@H]1C(=O)N[C@@H](CO)C(N)=O)C(C)C)[C@@H](C)CC` [Example 90] (H-Y[Aib]EGTFISDYSI[αMeL]LDKK([AEEA-AEEA-γGlu-C20 diacid])HQ[Aib]DFVE[αMeY]LLEAGPSSGAPPPS-NH2) showed a pKi of 6.95.

With `CC[C@H](C)[C@H](NC(=O)[C@H](CCCCN)NC(=O)[C@H](CC(=O)O)NC(=O)[C@H](CC(C)C)NC(=O)[C@](C)(CC(C)C)NC(=O)[C@@H](NC(=O)[C@H](CO)NC(=O)[C@H](Cc1ccc(O)cc1)NC(=O)[C@H](CC(=O)O)NC(=O)[C@H](CO)NC(=O)[C@@H](NC(=O)[C@H](Cc1ccccc1)NC(=O)[C@@H](NC(=O)CNC(=O)[C@H](CCC(=O)O)NC(=O)C(C)(C)NC(=O)[C@@H](N)Cc1ccc(O)cc1)[C@@H](C)O)[C@@H](C)CC)[C@@H](C)CC)C(=O)N[C@@H](Cc1c[nH]cn1)C(=O)N[C@@H](CCC(N)=O)C(=O)NC(C)(C)C(=O)N[C@@H](CC(=O)O)C(=O)N[C@@H](Cc1ccccc1)C(=O)N[C@H](C(=O)N[C@@H](CCC(=O)O)C(=O)N[C@@H](Cc1ccc(O)cc1)C(=O)N[C@@H](CCCCNC(=O)COCCOCCNC(=O)COCCOCCNC(=O)CC[C@H](NC(=O)CCCCCCCCCCCCCCCCCCC(=O)O)C(=O)O)C(=O)N[C@@H](CC(C)C)C(=O)N[C@@H](CCC(=O)O)C(=O)N[C@@H](CCC(N)=O)C(=O)NCC(=O)N1CCC[C@H]1C(=O)N[C@@H](CO)C(=O)N[C@@H](CO)C(=O)NCC(=O)N[C@@H](C)C(=O)N1CCC[C@H]1C(=O)N1CCC[C@H]1C(=O)N1CCC[C@H]1C(=O)N[C@@H](CO)C(N)=O)C(C)C` [Example 92] (H-Y[Aib]EGTFISDYSI[αMeL]LDKIHQ[Aib]DFVEYK([AEEA-AEEA-γGlu-C20 diacid])LEQGPSSGAPPPS-NH2) the pKi was less than 6.02.
